The subject of assay [1] is cysteinyl leukotrienes. Description: Cysteinyl leukotrienes ELISA in bronchoalveolar lavage fluid (BALF) of RSV infected BALB/c mice. The assay is classed as in vivo. Particulars: oral, SC low dose and SC high dose DIM; 6 and 10 days pi; vs RSV-infected, untreated mice; FIG. 7. As for the experimental part: The Following Experimental BALB/c Groups and Treatment Protocol Using DIM were Studied: • 1. RSV infected positive control group, infected with RSV and injected subcutaneously (SC) once daily with DMSO/Phosphate Buffered Saline (PBS) vehicle. • 2. RSV infected, Low dose Parenteral DIM group (15 mg/kg/day), injected SC once daily with DIM suspension • 3. RSV infected, High dose DIM Group (150 mg/kg/day), injected SC once daily with DIM suspension • 4. RSV infected, orally treated DIM group (250 mg/kg/day from absorption enhanced DIM [Example 6.1]), added to powdered feed • 5. Uninfected negative control group, nasally administered vehicle only, and injected subcutaneously (SC) once daily with DMSO/PBS vehicle
Mouse treatment, infection and harvest. […]
To determine viral titer, the lung was homogenized in DMEM supplemented with 2% FBS (2 ml DMEM per 100 mg tissue) in cold. […] Multiple, 4 μm thick sections were stained with haematoxylin & eosin (H&E) and scored for cellular inflammation under light microscopy by two independent researchers. Inflammatory infiltrates were scored by enumerating the layers of inflammatory cells surrounding the vessels and bronchioles. […] A total of about 20 spaces per lung were counted for each animal. […] The concentration of cysteinyl leukotrienes conjugates in the BALF was determined by an ELISA kit following the manufacturer's protocol (R&D Systems, Minneapolis, Minn.). […]

In assay [2] the test system is Mitogen Activated Protein Kinase (MAPK) cell signaling pathway. Particulars: cell culture; cited from earlier work.
The subject of assay [3] is breast cancer cells. The note with it: cited from earlier work.
For assay [4], the system named is RSV infected A549 pulmonary epithelial cells. As to the kind of experiment: Phosphohistone (H2A.X Phosphorylation) assay of apoptosis in RSV infected A549 cells. Type of assay: cell-based, human. Particulars: 18 hour treatment, FIG. 1. The protocol: Cell Culture—A549 cells, a tumor cell line with properties of normal airway epithelial cells, were obtained from American Type Culture Collection (ATCC, Manassas, Va.) and incubated at 37° C. in 5% CO2. The cells were cultured in Eagle's minimum essential medium (MEM, Invitrogen) supplemented with 10% fetal bovine serum (HyClone, Logan, Utah) and […] gentamicin. The A549 cells were subcultured by harvesting in 0.12% trypsin no more than 20 times from stock originally designated at pass 70. To minimize effects of exogenous growth factors or cytokines in this system, the supplemented serum concentration was reduced to 0.5% 24 h prior to and during all experiments with RSV infection.
RSV Virus—RSV, strain A2, was obtained from Advanced Biotechnologies Inc. (Columbia, Md.) and was used directly as supplied for all experiments. The viral preparation was tested to have a TCID50 titer of ˜1×10^9 in Hep-2 cells at 7 days. […]
Cell Viability and Death Assays—Induction of Apoptosis by DIM in RSV infected A549 cell was measured according to a Phosphohistone Assay. […] The detection was done by LumiGLO™ chemiluminescent substrate and the plate was read in a microplate luminometer after 10-20 min. Luminescence indicated the extent of apoptosis in the sample examined.

SMILES strings stand for the structures. Entries after “also recorded” stand apart in the source; their conditions may differ.

As for `c1ccc2c(Cc3c[nH]c4ccccc34)c[nH]c2c1` [DIM, 3,3′-diindolylmethane], the “leukotrienes in broncho-alveolar lung fluid (BALF)” value in assay [1] is reported as “significant reduction in leukotriene levels; also recorded: Reduction in pulmonary leukotriene levels; also recorded: significantly lower levels of lung inflammation associated leukotrienes”. The “MAPK cell signaling pathway activation” value in assay [2] is listed as “activate the Mitogen Activated Protein Kinase (MAPK) cell signaling pathway”. In assay [3], the estrogenic activity result is reported as “estrogenic”. Further, the cells undergoing apoptosis result in assay [4] (DIM 70, 210, 700 nM, LY294002 2 and 5 μM) is reported as “accelerated apopotosis in RSV infected cells; also recorded: significant, dose-related increase in cells undergoing apoptosis”. Moreover, the “Promotion of apoptosis by DIM compared with LY294002” value in assay [4] (nM DIM) was “more potent than that seen with LY294002”.
